Experimental data: PubChem BioAssay (NCI)
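Test compounds were applied to cells in 96-well plates for 48 hours at 5 doses. TGI is the concentration that stops growth completely.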 Where a SMILES comes first, the peptide text is derived from it. Side-chain parts run from the residue outwards. The star is where a group is joined. Cbz = O=C(OCc1ccccc1)*; Boc = CC(C)(C)OC(=O)*

Key:
Assay in all cases: NCI-60 cell line screen, 48 h
786-0 renal = test system: 786-0 renal
A549 NSCLC = test system: A549 NSCLC
ACHN renal = test system: ACHN renal
BT-549 breast = test system: BT-549 breast
CAKI-1 renal = test system: CAKI-1 renal
CCRF-CEM leukemia = test system: CCRF-CEM leukemia
DU-145 prostate = test system: DU-145 prostate
HCC-2998 colon = test system: HCC-2998 colon
HCT-116 colon = test system: HCT-116 colon
HCT-15 colon = test system: HCT-15 colon
HL-60(TB) leukemia = test system: HL-60(TB) leukemia
HOP-62 NSCLC = test system: HOP-62 NSCLC
HT29 colon = test system: HT29 colon
IGROV1 ovarian = test system: IGROV1 ovarian
K-562 leukemia = test system: K-562 leukemia
LOX IMVI melanoma = test system: LOX IMVI melanoma
M14 melanoma = test system: M14 melanoma
MALME-3M melanoma = test system: MALME-3M melanoma
MCF7 breast = test system: MCF7 breast
MDA-MB-231 breast = test system: MDA-MB-231 breast
MDA-N = test system: MDA-N
MOLT-4 leukemia = test system: MOLT-4 leukemia
NCI-H226 lung = test system: NCI-H226 lung
NCI-H23 lung = test system: NCI-H23 lung
NCI-H460 lung = test system: NCI-H460 lung
NCI-H522 lung = test system: NCI-H522 lung
OVCAR-3 ovarian = test system: OVCAR-3 ovarian
OVCAR-5 ovarian = test system: OVCAR-5 ovarian
OVCAR-8 ovarian = test system: OVCAR-8 ovarian
PC-3 prostate = test system: PC-3 prostate
RPMI-8226 leukemia = test system: RPMI-8226 leukemia
SF-268 CNS = test system: SF-268 CNS
SK-MEL-2 melanoma = test system: SK-MEL-2 melanoma
SK-MEL-28 melanoma = test system: SK-MEL-28 melanoma
SK-MEL-5 melanoma = test system: SK-MEL-5 melanoma
SN12C renal = test system: SN12C renal
SNB-19 CNS = test system: SNB-19 CNS
SNB-75 CNS = test system: SNB-75 CNS
SR leukemia = test system: SR leukemia
SW-620 colon = test system: SW-620 colon
T-47D breast = test system: T-47D breast
TK-10 renal = test system: TK-10 renal
U251 CNS = test system: U251 CNS
UACC-257 melanoma = test system: UACC-257 melanoma
UACC-62 melanoma = test system: UACC-62 melanoma
UO-31 renal = test system: UO-31 renal
A498 renal = test system: A498 renal
COLO 205 colon = test system: COLO 205 colon
EKVX NSCLC = test system: EKVX NSCLC
HOP-92 NSCLC = test system: HOP-92 NSCLC
HS 578T breast = test system: HS 578T breast
KM12 colon = test system: KM12 colon
MDA-MB-435 = test system: MDA-MB-435
NCI/ADR-RES ovarian = test system: NCI/ADR-RES ovarian
OVCAR-4 ovarian = test system: OVCAR-4 ovarian
RXF 393 renal = test system: RXF 393 renal
SF-295 CNS = test system: SF-295 CNS
SF-539 CNS = test system: SF-539 CNS
SK-OV-3 ovarian = test system: SK-OV-3 ovarian

In the case of CC(C)(C)OC(=O)NC(CCCCNC(=O)CNC(=O)OCc1ccccc1)C(=O)NC(CCCCNC(=O)CNC(=O)OCc1ccccc1)C(=O)NC(CCCCNC(=O)CNC(=O)OCc1ccccc1)C(=O)NC(CCCCNC(=O)CNC(=O)OCc1ccccc1)C(=O)O (stereo not given) (Boc-K([Gly-Cbz])K([Gly-Cbz])K([Gly-Cbz])K([Gly-Cbz])-OH; configuration not given here), the TGI (786-0 renal) is reported as > 100 µM, the TGI (A549 NSCLC) is reported as > 100 µM and the TGI (ACHN renal) is reported as > 100 µM. The TGI (BT-549 breast) was > 100 µM, the TGI (CAKI-1 renal) was > 100 µM and the TGI (CCRF-CEM leukemia) was > 100 µM. The TGI (DU-145 prostate) was > 100 µM, the TGI (HCC-2998 colon) was > 100 µM and the TGI (HCT-116 colon) was > 100 µM. The TGI (HCT-15 colon) was > 100 µM, the TGI (HL-60(TB) leukemia) was > 100 µM and the TGI (HOP-62 NSCLC) was > 100 µM. The TGI (HT29 colon) was > 100 µM, the TGI (IGROV1 ovarian) was > 100 µM and the TGI (K-562 leukemia) was > 100 µM. The TGI (LOX IMVI melanoma) was > 100 µM, the TGI (M14 melanoma) was > 100 µM and the TGI (MALME-3M melanoma) was > 100 µM. For the same compound, the TGI (MCF7 breast) was > 100 µM, the TGI (MDA-MB-231 breast) was > 100 µM and the TGI (MDA-N) was > 100 µM. For the same compound, the TGI (MOLT-4 leukemia) was > 100 µM, the TGI (NCI-H226 lung) was > 100 µM and the TGI (NCI-H23 lung) was > 100 µM. For the same compound, the TGI (NCI-H460 lung) was > 100 µM, the TGI (NCI-H522 lung) was > 100 µM and the TGI (OVCAR-3 ovarian) was > 100 µM. For the same compound, the TGI (OVCAR-5 ovarian) was > 100 µM, the TGI (OVCAR-8 ovarian) was > 100 µM and the TGI (PC-3 prostate) was > 100 µM. The TGI (RPMI-8226 leukemia) was > 100 µM, the TGI (SF-268 CNS) was > 100 µM and the TGI (SK-MEL-2 melanoma) was > 100 µM. The TGI (SK-MEL-28 melanoma) was > 100 µM, the TGI (SK-MEL-5 melanoma) was > 100 µM and the TGI (SN12C renal) was > 100 µM. For the same compound, the TGI (SNB-19 CNS) was > 100 µM, the TGI (SNB-75 CNS) was > 100 µM and the TGI (SR leukemia) was > 100 µM. The TGI (SW-620 colon) was > 100 µM, the TGI (T-47D breast) was > 100 µM and the TGI (TK-10 renal) was > 100 µM. The TGI (U251 CNS) was > 100 µM, the TGI (UACC-257 melanoma) was > 100 µM and the TGI (UACC-62 melanoma) was > 100 µM. The TGI (UO-31 renal) was > 100 µM.

For CN(C)c1ccc2cc3ccc(N(C)C)cc3nc2c1, the TGI (786-0 renal) was 2.26 µM, the TGI (A498 renal) was 9.01 µM and the TGI (A549 NSCLC) was 7.49 µM. It also gave a TGI (ACHN renal) of 3.67 µM, a TGI (BT-549 breast) of 22.1 µM and a TGI (CAKI-1 renal) of 13.5 µM. It also gave a TGI (COLO 205 colon) of 22.8 µM, a TGI (DU-145 prostate) of 4.29 µM and a TGI (EKVX NSCLC) of 7.21 µM. The TGI (HCC-2998 colon) was 2.64 µM, the TGI (HCT-15 colon) was 2.94 µM and the TGI (HL-60(TB) leukemia) was 3.66 µM. It also gave a TGI (HOP-62 NSCLC) of 7.18 µM, a TGI (HOP-92 NSCLC) of 20 µM and a TGI (HS 578T breast) of 10.7 µM. For the same compound, the TGI (HT29 colon) was 1.81 µM, the TGI (IGROV1 ovarian) was 17.3 µM and the TGI (K-562 leukemia) was 21.6 µM. The TGI (KM12 colon) was 1.85 µM, the TGI (LOX IMVI melanoma) was 3.63 µM and the TGI (M14 melanoma) was 8.15 µM. It also gave a TGI (MALME-3M melanoma) of 10.1 µM, a TGI (MCF7 breast) of 11.5 µM and a TGI (MDA-MB-231 breast) of 2.89 µM. The TGI (MDA-MB-435) was 13 µM, the TGI (MDA-N) was 3.03 µM and the TGI (NCI-H226 lung) was 19.9 µM. For the same compound, the TGI (NCI-H23 lung) was 6.17 µM, the TGI (NCI-H460 lung) was 1.99 µM and the TGI (NCI-H522 lung) was 7.56 µM. It also gave a TGI (NCI/ADR-RES ovarian) of 5.06 µM, a TGI (OVCAR-3 ovarian) of 13.4 µM and a TGI (OVCAR-4 ovarian) of 3.37 µM. The TGI (OVCAR-5 ovarian) was 9.82 µM, the TGI (OVCAR-8 ovarian) was 5.62 µM and the TGI (PC-3 prostate) was 9.48 µM. For the same compound, the TGI (RPMI-8226 leukemia) was 4.09 µM, the TGI (RXF 393 renal) was 22.7 µM and the TGI (SF-268 CNS) was 6.26 µM. It also gave a TGI (SF-295 CNS) of 15.2 µM, a TGI (SF-539 CNS) of 6.53 µM and a TGI (SK-MEL-2 melanoma) of 21.9 µM. The TGI (SK-MEL-28 melanoma) was 16.3 µM, the TGI (SK-MEL-5 melanoma) was 8.34 µM and the TGI (SK-OV-3 ovarian) was 13.9 µM. The TGI (SN12C renal) was 7.28 µM, the TGI (SNB-19 CNS) was 3.95 µM and the TGI (SNB-75 CNS) was 11.9 µM. It also gave a TGI (T-47D breast) of 36.4 µM, a TGI (TK-10 renal) of 9.21 µM and a TGI (U251 CNS) of 5.79 µM. For the same compound, the TGI (UACC-257 melanoma) was 24.8 µM, the TGI (UACC-62 melanoma) was 28.2 µM and the TGI (UO-31 renal) was 4.11 µM.
